In US10689344B2, “Biphenylamide derivative Hsp90 inhibitors” (University of Kansas, priority 2013, dated 2020):
Values belong to the compound of their own block, whether it stands above or below them.

Assays:
[1] = test system: SKBr3 (estrogen receptor negative, HER2 over-expressing breast cancer cells); assay: Anti-proliferation assay (MTS/PMS, 72 h), SKBr3; assay type: cell-based; settings: Homo sapiens
Experimental: (§1) Cells were maintained in a 1:1 mixture of Advanced DMEM/F12 (Gibco) supplemented with non-essential amino acids, L-glutamine (2 mM), streptomycin (500 μg/mL), penicillin (100 units/mL), and 10% FBS. Cells were grown to confluence in a humidified atmosphere (37° C., 5% CO2), seeded (2000/well, 100 μL) in 96-well plates, and allowed to attach overnight. Compound at varying concentrations in DMSO (1% DMSO final concentration) was added, and cells were returned to the incubator for 72 h. At 72 h, the number of viable cells was determined using an MTS/PMS cell proliferation kit (Promega) per the manufacturer's instructions. Cells incubated in 1% DMSO were used at 100% proliferation, and values were adjusted accordingly. IC50 values were calculated from separate experiments performed in triplicate using GraphPad Prism.
(§2) Anti-proliferative studies with the compounds described herein were performed against the SKBr3 (estrogen receptor negative, HER2 over-expressing breast cancer cells) and MCF-7 (estrogen receptor positive breast cancer cells) breast cancer cell lines. […] In some embodiments, in contrast to the novobiocin derivatives, which usually manifest better anti-proliferative activities against the SKBr3 cell line, the biphenyl derivatives described herein were more efficacious against the MCF-7 cell line. In general, all substitutions on the phenyl ring were determined to be beneficial, consistent with the existence of a hydrophobic pocket in this region of the Hsp90 C-terminal binding site.

[2] = test system: MCF-7 (estrogen receptor positive breast cancer cells); assay: Anti-proliferation assay (MTS/PMS, 72 h), MCF-7; assay type: cell-based; settings: Homo sapiens
Experimental: as §1, §2

[3] = SK-BR-3, Table 11, heteroatom linked biphenyl core
[4] = MCF7, Table 11, heteroatom linked biphenyl core
[5] = SK-BR-3, Table 3, substituted para-para biphenyl core
[6] = MCF7, Table 3, substituted para-para biphenyl core
[7] = SK-BR-3, Table 1, ortho, meta and para biphenyl cores
[8] = MCF7, Table 1, ortho, meta and para biphenyl cores
[9] = SK-BR-3, Table 2, para-meta biphenyl core with substituted benzylamide
[10] = MCF7, Table 2, para-meta biphenyl core with substituted benzylamide
[11] = SK-BR-3, Table 6, para-para biphenyl core with substituted benzylamide
[12] = MCF7, Table 6, para-para biphenyl core with substituted benzylamide

Compound: COc1ccc(C(=O)Nc2ccc(Nc3ccc(OC4CCN(C)CC4)cc3)cc2)cc1 [drawing 159]
IC50 [1, 3]: 18200 ± 2190 nM
IC50 [2, 4]: 2830 ± 1870 nM

Compound: CN1CCC(Oc2ccc(Nc3ccc(NC(=O)c4ccc5ccccc5c4)cc3)cc2)CC1
IC50 [1, 3]: 4600 ± 250 nM
IC50 [2, 4]: 2150 ± 10 nM

Compound: COc1cccc(-c2cc(C(=O)Nc3ccc(-c4ccc(OC5CCN(C)CC5)cc4NC(C)=O)cc3)ccc2OC)c1 [Compound 39b, N-(2′-acetamido-4′-((1-methylpiperidin-4-yl)oxy)-[1,1′-biphenyl]-4-yl)-3′,6-dimethoxy-[1,1′-biphenyl]-3-carboxamide]
IC50 [1, 5]: 3390 ± 660 nM
IC50 [2, 6]: 1360 ± 230 nM

Compound: COc1cccc(-c2cc(C(=O)Nc3ccc(-c4ccc(OC5CCN(C)CC5)cc4)cc3Cl)ccc2OC)c1 [Compound 29l, N-(3-chloro-4′-((1-methylpiperidin-4-yl)oxy)-[1,1′-biphenyl]-4-yl)-3′,6-dimethoxy-[1,1′-biphenyl]-3-carboxamide]
IC50 [1, 5]: 4750 nM
IC50 [2, 6]: 1800 ± 190 nM

Compound: Cc1ccc(C(=O)Nc2cccc(-c3ccc(OC4CCN(C)CC4)cc3)c2)cc1 [Compound 6c, 4-methyl-N-(4′-((1-methylpiperidin-4-yl)oxy)-[1,1′-biphenyl]-3-yl)benzamide]
IC50 [1, 9]: 5270 nM
IC50 [2, 10]: 3920 ± 130 nM

Compound: COc1cccc(-c2cc(C(=O)Nc3ccc(-c4ccc(OC5CCN(C)CC5)cc4)c([N+](=O)[O-])c3)ccc2OC)c1 [Compound 34c, 3′,6-dimethoxy-N-(4′-((1-methylpiperidin-4-yl)oxy)-2-nitro-[1,1′-biphenyl]-4-yl)-[1,1′-biphenyl]-3-carboxamide]
IC50 [1, 5]: 2480 ± 770 nM
IC50 [2, 6]: 3320 ± 250 nM

Compound: COc1cccc(-c2cc(C(=O)Nc3ccc(-c4ccc(OC5CCN(C)CC5)c(OC)c4)cc3)ccc2OC)c1 [Compound 29e, 3′,6-dimethoxy-N-(3′-methoxy-4′-((1-methylpiperidin-4-yl)oxy)-[1,1′-biphenyl]-4-yl)-[1,1′-biphenyl]-3-carboxamide]
IC50 [1, 5]: 680 ± 130 nM
IC50 [2, 6]: 1320 ± 80 nM

Compound: COc1cccc(-c2cc(C(=O)Nc3ccc(-c4ccc(OC5CCN(C)CC5)cc4)cc3[N+](=O)[O-])ccc2OC)c1 [Compound 34d, 3′,6-dimethoxy-N-(4′-((1-methylpiperidin-4-yl)oxy)-3-nitro-[1,1′-biphenyl]-4-yl)-[1,1′-biphenyl]-3-carboxamide]
IC50 [1, 5]: 920 nM
IC50 [2, 6]: 1150 ± 10 nM

Compound: CN1CCC(Oc2ccc(Nc3ccc(NC(=O)c4ccc(Cl)cc4)cc3)cc2)CC1
IC50 [1, 3]: 6440 ± 2610 nM
IC50 [2, 4]: 7100 nM

Compound: CN1CCC(Oc2ccc(-c3cccc(NC(=O)c4ccc5ccccc5c4)c3)cc2)CC1 [Compound 6q]
IC50 [1, 9]: 2090 ± 340 nM
IC50 [2, 10]: 1660 ± 270 nM

Compound: COc1cccc(-c2cc(C(=O)Nc3ccc(-c4ccc(OC5CCN(C)CC5)cc4)cc3C)ccc2OC)c1 [Compound 29d, 3′,6-dimethoxy-N-(3-methyl-4′-((1-methylpiperidin-4-yl)oxy)-[1,1′-biphenyl]-4-yl)-[1,1′-biphenyl]-3-carboxamide]
IC50 [1, 5]: 2470 ± 390 nM
IC50 [2, 6]: 1430 ± 350 nM

Compound: CN1CCC(Oc2ccc(Nc3ccc(NC(=O)c4ccc(C(C)(C)C)cc4)cc3)cc2)CC1
IC50 [1, 3]: 2170 ± 30 nM
IC50 [2, 4]: 3370 ± 1630 nM

Compound: COc1cccc(-c2cc(C(=O)Nc3ccc(-c4ccc(OC5CCN(C)CC5)cc4)c(OC)c3)ccc2OC)c1 [Compound 29g, 3′,6-dimethoxy-N-(2-methoxy-4′-((1-methylpiperidin-4-yl)oxy)-[1,1′-biphenyl]-4-yl)-[1,1′-biphenyl]-3-carboxamide]
IC50 [1, 5]: 900 ± 80 nM
IC50 [2, 6]: 1500 ± 80 nM

Compound: COc1cccc(-c2cc(C(=O)Nc3ccc(-c4ccc(OC5CCN(C)CC5)cc4)c(Cl)c3)ccc2OC)c1 [Compound 29k, N-(2-chloro-4′-((1-methylpiperidin-4-yl)oxy)-[1,1′-biphenyl]-4-yl)-3′,6-dimethoxy-[1,1′-biphenyl]-3-carboxamide]
IC50 [1, 5]: 2210 ± 180 nM
IC50 [2, 6]: 3440 ± 210 nM

Compound: Cc1cccc(C(=O)Nc2cccc(-c3ccc(OC4CCN(C)CC4)cc3)c2)c1 [Compound 6d, 3-methyl-N-(4′-((1-methylpiperidin-4-yl)oxy)-[1,1′-biphenyl]-3-yl)benzamide]
IC50 [1, 9]: 11400 ± 1370 nM
IC50 [2, 10]: 7730 ± 1900 nM

Compound: CN1CCC(Oc2ccc(-c3cccc(NC(=O)c4ccc(C(C)(C)C)cc4)c3)cc2)CC1 [Compound 6e, 4-(tert-butyl)-N-(4′-((1-methylpiperidin-4-yl)oxy)-[1,1′-biphenyl]-3-yl)benzamide]
IC50 [1, 7]: 1510 ± 310 nM
IC50 [1, 9]: 1510 ± 310 nM
IC50 [2, 8]: 3450 ± 20 nM
IC50 [2, 10]: 3450 ± 20 nM

Continued, values first:

IC50 [1, 7]: 2070 ± 350 nM
IC50 [2, 8]: 2770 ± 230 nM
Compound: CN1CCC(Oc2ccc(-c3ccc(NC(=O)C45CC6CC(CC(C6)C4)C5)cc3)cc2)CC1 [Compound 61c, N-(4′-((1-methylpiperidin-4-yl)oxy)-[1,1′-biphenyl]-4-yl)adamantane-1-carboxamide]

IC50 [1, 11]: 310 ± 90 nM
IC50 [2, 12]: 580 ± 10 nM
Compound: CN1CCC(Oc2ccc(-c3ccc(NC(=O)c4ccc(I)cc4)cc3)cc2)CC1 [Compound 41d, 4-iodo-N-(4′-((1-methylpiperidin-4-yl)oxy)-[1,1′-biphenyl]-4-yl)benzamide]

IC50 ([1]; SK-BR-3, Table 8, para-para biphenyl core with substituted biphenylamide group): 2780 ± 350 nM
IC50 ([2]; MCF7, Table 8, para-para biphenyl core with substituted biphenylamide group): 2710 ± 450 nM
Compound: COc1cccc(-c2cc(C(=O)Nc3ccc(-c4ccc(OC5CCN(C)CC5)cc4)cc3)ccc2O)c1 [Compound 49j]

IC50 [1, 11]: 6260 ± 1540 nM
IC50 [2, 12]: 6670 ± 830 nM
Compound: CN1CCC(Oc2ccc(-c3ccc(NC(=O)c4ccccc4-c4ccccc4)cc3)cc2)CC1 [Compound 41q, N-(4′-((1-methylpiperidin-4-yl)oxy)-[1,1′-biphenyl]-4-yl)-[1,1′-biphenyl]-2-carboxamide]

IC50 [1, 11]: 1960 ± 240 nM
IC50 [2, 12]: 2280 ± 490 nM
Compound: Cc1ccc(C(=O)Nc2ccc(-c3ccc(OC4CCN(C)CC4)cc3)cc2)cc1Cl [Compound 41k, 3-chloro-4-methyl-N-(4′-((1-methylpiperidin-4-yl)oxy)-[1,1′-biphenyl]-4-yl)benzamide]

IC50 [1, 11]: 640 ± 80 nM
IC50 [2, 12]: 580 ± 20 nM
Compound: CN1CCC(Oc2ccc(-c3ccc(NC(=O)c4cc5ccccc5[nH]4)cc3)cc2)CC1 [Compound 47a, N-(4′-((1-methylpiperidin-4-yl)oxy)-[1,1′-biphenyl]-4-yl)-1H-indole-2-carboxamide]

IC50 [1, 7]: 490 ± 10 nM
IC50 [1, 11]: 490 ± 10 nM
IC50 [2, 8]: 650 ± 40 nM
IC50 [2, 12]: 650 ± 40 nM
Compound: COc1ccc(C(=O)Nc2ccc(-c3ccc(OC4CCN(C)CC4)cc3)cc2)cc1 [Compound 41f, 4-methoxy-N-(4′-((1-methylpiperidin-4-yl)oxy)-[1,1′-biphenyl]-4-yl)benzamide]

IC50 [1, 11]: 930 ± 200 nM
IC50 [2, 12]: 1170 ± 200 nM
Compound: Cc1ccc(C(=O)Nc2ccc(-c3ccc(OC4CCN(C)CC4)cc3)cc2)cc1I [Compound 41m, 3-iodo-4-methyl-N-(4′-((1-methylpiperidin-4-yl)oxy)-[1,1′-biphenyl]-4-yl)benzamide]

IC50 [1, 11]: 520 ± 210 nM
IC50 [2, 12]: 520 ± 150 nM
Compound: CN1CCC(Oc2ccc(-c3ccc(NC(=O)c4ccc(Br)cc4)cc3)cc2)CC1 [Compound 41c, 4-bromo-N-(4′-((1-methylpiperidin-4-yl)oxy)-[1,1′-biphenyl]-4-yl)benzamide]

IC50 ([1]; SK-BR-3, Table 7, para-para biphenyl core with modified ether groups): 1750 ± 240 nM
Compound: COc1cccc(-c2cc(C(=O)Nc3ccc(-c4ccc(OCCC5CCCN5C)cc4)cc3)ccc2OC)c1 (stereo not drawn) [Compound 56d, 3′,6-dimethoxy-N-(4′-(2-(1-methylpyrrolidin-2-yl)ethoxy)-[1,1′-biphenyl]-4-yl)-[1,1′-biphenyl]-3-carboxamide]

IC50 [1, 11]: 1310 ± 180 nM
IC50 [2, 12]: 2070 ± 160 nM
Compound: CN1CCC(Oc2ccc(-c3ccc(NC(=O)c4ccc5ncccc5c4)cc3)cc2)CC1 [Compound 45b, N-(4′-((1-methylpiperidin-4-yl)oxy)-[1,1′-biphenyl]-4-yl)quinoline-6-carboxamide]
